Measured values reported in PubChem BioAssay AID1919002 (Molecular Pharmacology Branch, DTP, NCI, 2023).

Tested on: 743489-274-T-PDC complex spheroid growth
Experiment: Anticancer human tumor 743489-274-T-PDC patient-derived renal cell carcinoma cell line growth inhibition [AhR]
Conditions: for IC50: curve of first compound; for viability, T/C: stronger effect = lower value
Method in brief: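 Spheroids combined tumor cells with HUVEC endothelial cells and human MSCs as stroma. AhR antagonists were paired with standard or investigational drugs, each dosed in half-log steps down from near clinical Cmax, or from 10 microM where Cmax was unknown.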

[1] = second compound 0.1 µM, first compound 0.00316 µM
[2] = second compound 0.1 µM, first compound 0.01 µM
[3] = second compound 0.1 µM, first compound 0.0316 µM
[4] = second compound 0.1 µM, first compound 0.1 µM
[5] = second compound 0.316 µM, first compound 0.00316 µM
[6] = second compound 0.316 µM, first compound 0.01 µM
[7] = second compound 0.316 µM, first compound 0.0316 µM
[8] = second compound 0.316 µM, first compound 0.1 µM
[9] = second compound 1 µM, first compound 0.00316 µM
[10] = second compound 1 µM, first compound 0.01 µM
[11] = second compound 1 µM, first compound 0.0316 µM
[12] = second compound 1 µM, first compound 0.1 µM
[13] = second compound 3.16 µM, first compound 0.00316 µM
[14] = second compound 3.16 µM, first compound 0.01 µM
[15] = second compound 3.16 µM, first compound 0.0316 µM
[16] = second compound 3.16 µM, first compound 0.1 µM
[17] = second compound 10 µM, first compound 0.00316 µM
[18] = second compound 10 µM, first compound 0.01 µM
[19] = second compound 10 µM, first compound 0.0316 µM
[20] = second compound 10 µM, first compound 0.1 µM
[21] = second compound 0.1 µM, first compound 0.316 µM
[22] = second compound 0.1 µM, first compound 1 µM
[23] = second compound 0.1 µM, first compound 3.16 µM
[24] = second compound 0.1 µM, first compound 10 µM
[25] = second compound 0.316 µM, first compound 0.316 µM
[26] = second compound 0.316 µM, first compound 1 µM
[27] = second compound 0.316 µM, first compound 3.16 µM
[28] = second compound 0.316 µM, first compound 10 µM
[29] = second compound 1 µM, first compound 0.316 µM
[30] = second compound 1 µM, first compound 1 µM
[31] = second compound 1 µM, first compound 3.16 µM
[32] = second compound 1 µM, first compound 10 µM
[33] = second compound 3.16 µM, first compound 0.316 µM
[34] = second compound 3.16 µM, first compound 1 µM
[35] = second compound 3.16 µM, first compound 3.16 µM
[36] = second compound 3.16 µM, first compound 10 µM
[37] = second compound 10 µM, first compound 0.316 µM
[38] = second compound 10 µM, first compound 1 µM
[39] = second compound 10 µM, first compound 3.16 µM
[40] = second compound 10 µM, first compound 10 µM
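Further: spheroids exposed to agents for 7 days before readout.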
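Wherever viability, T/C is given: 100% = DMSO vehicle control wells.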

Row | Compound | IC50 (second compound 0.1 µM) [µM] | IC50 (second compound 0.316 µM) [µM] | IC50 (second compound 1 µM) [µM] | IC50 (second compound 3.16 µM) [µM] | IC50 (second compound 10 µM) [µM] | viability, T/C [3] [%] | viability, T/C [4] [%] | viability, T/C [7] [%] | viability, T/C [8] [%] | viability, T/C [11] [%] | viability, T/C [12] [%] | viability, T/C [15] [%] | viability, T/C [16] [%] | viability, T/C [19] [%] | viability, T/C [20] [%] | viability, T/C [21] [%] | viability, T/C [22] [%] | viability, T/C [25] [%] | viability, T/C [26] [%] | viability, T/C [29] [%] | also measured
1 | CC[C@@]1(O)C(=O)OCc2c1cc1n(c2=O)Cc2cc3c(CN(C)C)c(O)ccc3nc2-1 + Cc1ccccc1N=Nc1ccc(NC(=O)c2ccnn2C)c(C)c1 | > 0.1 | > 0.1 | > 0.1 | > 0.1 | > 0.1 | 89.3 | 80.9 | 89.3 | 85.9 | 87 | 77.4 | 90.4 | 79.9 | 80.7 | 63.5 |  |  |  |  |  | viability, T/C (second compound 0.1 µM, first compound 0.000316 µM): 98.8%; viability, T/C (second compound 0.1 µM, first compound 0.001 µM): 98.7%; viability, T/C [1]: 111%; viability, T/C [2]: 95.8%; viability, T/C (second compound 0.316 µM, first compound 0.000316 µM): 98.2%; viability, T/C (second compound 0.316 µM, first compound 0.001 µM): 105%; viability, T/C [5]: 106%; viability, T/C [6]: 96.6%; viability, T/C (second compound 1 µM, first compound 0.000316 µM): 89.1%; viability, T/C (second compound 1 µM, first compound 0.001 µM): 94%; viability, T/C [9]: 92.6%; viability, T/C [10]: 81.1%; viability, T/C (second compound 3.16 µM, first compound 0.000316 µM): 87.4%; viability, T/C (second compound 3.16 µM, first compound 0.001 µM): 81.2%; viability, T/C [13]: 93.3%; viability, T/C [14]: 90.4%; viability, T/C (second compound 10 µM, first compound 0.000316 µM): 88.9%; viability, T/C (second compound 10 µM, first compound 0.001 µM): 80.7%; viability, T/C [17]: 87.4%; viability, T/C [18]: 86.2%
2 | COc1cc(C2c3cc4c(cc3C(OC3OC5COC(C)OC5C(O)C3O)C3COC(=O)C23)OCO4)cc(OC)c1O (stereo not given) + Cc1ccccc1N=Nc1ccc(NC(=O)c2ccnn2C)c(C)c1 | > 10 | > 10 | > 10 | > 10 | > 10 | 98.7 | 87 | 91.2 | 93.6 | 86.7 | 93.7 | 83.3 | 90.2 | 78.4 | 81.8 | 97.2 | 94.4 | 91.2 | 88.9 | 90.7 | viability, T/C [23]: 98.3%; viability, T/C [24]: 79.9%; viability, T/C [27]: 77.9%; viability, T/C [28]: 80.7%; viability, T/C [30]: 88.9%; viability, T/C [31]: 90.4%; viability, T/C [32]: 74.8%; viability, T/C [33]: 86.9%; viability, T/C [34]: 78.8%; viability, T/C [35]: 78.6%; viability, T/C [36]: 75.8%; viability, T/C [37]: 95.1%; viability, T/C [38]: 72%; viability, T/C [39]: 69.4%; viability, T/C [40]: 70.7%
3 | COc1cccc2c1C(=O)c1c(O)c3c(c(O)c1C2=O)CC(O)(C(=O)CO)CC3OC1CC(N)C(O)C(C)O1 (stereo not given) + Cc1ccccc1N=Nc1ccc(NC(=O)c2ccnn2C)c(C)c1 | 5.54 | 5.43 | 9.11 | 8.62 | 4.79 | 102 | 97.3 | 107 | 96.8 | 96 | 101 | 90 | 88.8 | 85.3 | 82.2 | 114 | 102 | 99.7 | 105 | 98.6 | viability, T/C [23]: 73.3%; viability, T/C [24]: 25.6%; viability, T/C [27]: 81.4%; viability, T/C [28]: 14.5%; viability, T/C [30]: 95.2%; viability, T/C [31]: 80.4%; viability, T/C [32]: 47.3%; viability, T/C [33]: 105%; viability, T/C [34]: 96%; viability, T/C [35]: 87.3%; viability, T/C [36]: 44.3%; viability, T/C [37]: 95.1%; viability, T/C [38]: 83.5%; viability, T/C [39]: 71.9%; viability, T/C [40]: 11.7%
4 | Nc1ccn(C2OC(CO)C(O)C2(F)F)c(=O)n1 (stereo not given) + Cc1ccccc1N=Nc1ccc(NC(=O)c2ccnn2C)c(C)c1 | > 10 | > 10 | 9.15 | 1.48 | > 10 | 65 | 62.7 | 66.4 | 62 | 61 | 57.4 | 68.1 | 55.8 | 69.9 | 56.9 | 54.7 | 63.4 | 56.5 | 59.4 | 65.6 | viability, T/C [23]: 57.1%; viability, T/C [24]: 59.1%; viability, T/C [27]: 54.8%; viability, T/C [28]: 53.1%; viability, T/C [30]: 56.7%; viability, T/C [31]: 51.2%; viability, T/C [32]: 50.8%; viability, T/C [33]: 51.9%; viability, T/C [34]: 45.5%; viability, T/C [35]: 50.8%; viability, T/C [36]: 52.3%; viability, T/C [37]: 51.4%; viability, T/C [38]: 60.6%; viability, T/C [39]: 47.8%; viability, T/C [40]: 55.4%
5 | Nc1ncn(C2CC(O)C(CO)O2)c(=O)n1 (stereo not given) + Cc1ccccc1N=Nc1ccc(NC(=O)c2ccnn2C)c(C)c1 | > 1 | > 1 | > 1 | > 1 | > 1 | 88.6 | 92.5 | 89.8 | 87.2 | 101 | 79.8 | 83.9 | 74.8 | 90 | 96.2 | 103 | 87.1 | 87.8 | 84.7 | 101 | viability, T/C [1]: 86.2%; viability, T/C [2]: 91.2%; viability, T/C [5]: 107%; viability, T/C [6]: 89.2%; viability, T/C [9]: 89.7%; viability, T/C [10]: 99.1%; viability, T/C [30]: 87.9%; viability, T/C [13]: 94.8%; viability, T/C [14]: 81.7%; viability, T/C [33]: 88.9%; viability, T/C [34]: 82.8%; viability, T/C [17]: 92.7%; viability, T/C [18]: 88%; viability, T/C [37]: 80.1%; viability, T/C [38]: 82.8%
